Data: patent US20120108500A1, “Compositions and Methods for Modulating Immunodeficiency Virus Transcription” (priority 2010, published 2012)

What was measured:
[1] = tested on: HIV transcription in J-Lat A2 cells; test: cells; assay type: cell-based; settings: for effect on TNFα-mediated activation of gene expression: phenelzine 100-3000 μM, DRB 0.3-10 μM
Protocol: Culhane et al. (2010) J Am Chem Soc 132: 3164-3176. To test the activity of this agent in HIV infection, J-Lat A2 cells were treated with increasing amounts of phenelzine or the CDK inhibitor 5,6-dichloro-1-β-D-ribofuranosyl-1H-benzimidazole (DRB), a known Tat inhibitor.
(§1) FIGS. 7A and 7B. LSD1/KDM1 is a potential drug target in HIV transcription. (A) J-Lat A2 cells were stimulated with 0.08 ng/ml of TNFα in the presence of increasing amounts of phenelzine (100, 300, 1000 or 3000 μM), DRB (0.3, 1, 3 or 10 μM) or dimethylsulfoxide (DMSO) as carrier control overnight. Numbers of GFP+ cells as well as propidium iodide (PI)-negative cells as a measure of intact cell viability were analyzed by flow cytometry. The percentage compared to DMSO-treated control cells was calculated. The average of two independent experiments is shown. (B) Purified resting primary CD4+ T cells were infected at a high multiplicity of infection (M.O.I.) with infectious HIV-NL4-3 luciferase reporter virus. Three days after infection, cells were stimulated with α-CD3 and α-CD28 antibodies in the presence of phenelzine (100, 300, or 1000 μM), DRB (1 or 10 μM) or DMSO overnight followed by analysis for luciferase activity and PI uptake.

J-Lat A2 cells = test: Cell viability of J-Lat A2 cells (propidium iodide-negative cells, flow cytometry); settings: at the tested concentrations
Protocol: as §1

[2] = tested on: HIV-1 NL4-3 luciferase reporter virus in primary CD4+ T cells
Protocol: as §1

primary CD4+ T cells = tested on: primary CD4+ T cells
Protocol: as §1

[3] = target: C-terminal FLAG tagged Tat protein (Tat/FLAG), expressed in cells (HIV) (UniProt P04608); test: cell-based or functional assay
[4] = tested on: histone H3 dimethylated at lysine 4 (in purified total cellular histones)
[5] = target: synthetic Tat protein (aa 1-72), K51 monomethylated (UniProt P04608)

Question: Which IC50 ([1]; Human immunodeficiency virus 1, J-Lat A2, read-out: IC50, prevention of TNFα-mediated activation of gene expression (GFP+ cells)) does the source give for `NNCCc1ccccc1` (racemic) [phenelzine, (±)-2-phenylethylhydrazine] here?
Answer: 300 µM

Question: And the “concentrations needed relative to DRB” value ([1]; J-Lat A2 cells, TNFα-stimulated)?
Answer: ~150 fold

Question: What about the “effect on TNFα-mediated activation of gene expression” value ([1]; J-Lat A2 cells) of the same compound?
Answer: prevented TNFα-mediated activation of gene expression in a dose-dependent manner

Question: What about the “cell toxicity (PI-negative cells)” value (J-Lat A2 cells) of the same compound?
Answer: No cell toxicity was observed

Question: What about the “basal expression of luciferase” value ([2]; nonactivated primary T cells) of the same compound?
Answer: suppressed the basal expression of luciferase in nonactivated cells

Question: What about the “activation of luciferase expression” value ([2]; primary CD4+ T cells of two donors, α-CD3/α-CD28 stimulation, phenelzine 100-1000 μM) of the same compound?
Answer: successfully suppressed

Question: What about the “suppression of HIV gene expression compared with DRB” value ([2]; primary T cells) of the same compound?
Answer: more efficient in suppressing HIV gene expression than DRB

Question: And the “cell viability (PI uptake)” value (primary CD4+ T cells)?
Answer: slight decrease in cell viability was observed in one donor

Question: With `OC[C@H]1O[C@@H](n2cnc3cc(Cl)c(Cl)cc32)[C@H](O)[C@@H]1O` [DRB, 5,6-dichloro-1-β-D-ribofuranosyl-1H-benzimidazole] as the compound, how does the “effect on TNFα-mediated activation of gene expression” value ([1]; J-Lat A2 cells) read?
Answer: prevented TNFα-mediated activation of gene expression in a dose-dependent manner

Question: And the “cell toxicity (PI-negative cells)” value (J-Lat A2 cells)?
Answer: No cell toxicity was observed

Question: For “endogenous LSD1/KDM1 (lysine-specific demethylase-1) in cells (from UniProt O60341 1-852) (enzyme)”, which decrease in Tat transactivation of the HIV LTR luciferase reporter in HeLa cells after LSD1/KDM1 siRNA [3] is on record?
Answer: 50%

Question: For “recombinant LSD1/KDM1 (His-tagged, prokaryotic expression)”, which “in vitro demethylation of purified histones, western blot with α-Me2H3K4” value [4] is on record?
Answer: LSD1/KDM1 also demethylated its cognate substrate, dimethyl lysine 4 in histone H3, as expected

Question: And the “in vitro demethylation, western blot with α-Me1K51 Tat antibodies” value [5]?
Answer: Recombinant LSD1/KDM1 demethylated synthetic monomethylated Tat in a dose-dependent manner
